# Laboratory results taken from patent US10525139B2, “Folate-conjugated molecules for delivery of toxic small molecule inhibitors to cancer cells and methods of use” (priority 2014, dated 2020).
# “Also recorded” adds a separate entry of the source.
# Tests used:
# [1] = system: murine NOTCH1 L1601P ΔPEST expressing leukemia lymphoblasts; assay: Ex vivo treatment of murine NOTCH1 L1601P ΔPEST leukemia lymphoblasts; assay type: cell-based, mouse
# Description: Viability data is represented as percentage relative to vehicle treatment and errors bars denote mean±SD of 3 replicates. Statistical significance of treated vs. vehicle (DMSO) samples (***P≤0.01; ***P≤0.001) was determined by one-way ANOVA with Bonferroni's correction for multiple comparison testing. […] The immunoblot contains cell lysates stained with anti-ICN1 antibody (Val1744) after treatment with the 10 μM of JQ-FT for 24 hours in vitro. GAPDH was used as a loading control ICN1 loss was quantified and bar graph (panel e) corresponds to the results of the quantification of three independent experiments. Statistical significance of treated vs. vehicle (DMSO) samples (*P≤0.05) was determined by Student's t-test. Expression of indicated NOTCH1 target genes HesI (panel d) and Dtx1 (panel e) in murine NOTCH1 L1601P ΔPEST expressing leukemia lymphoblasts treated with 10 μM JQ-FT for 24 hours was determined by qRT-PCR. Error bars indicate the mean±SD of 3 replicates. Data were analyzed using the ΔΔCT method and plotted as a percentage relative to the control gene Gapdh. Statistical significance for treated vs. vehicle (DMSO) (*P≤0.05) was determined by Student's t-test. […] The spleen and the liver of all mice were examined; representative results for one control animal and one JQ-FT-treated animal are shown. Formalin-fixed, paraffin-embedded tissue sections were stained using the hematoxylin and eosin stain (H & E) method. […] Anti-leukemic activity of JQ-FT was assessed by measuring spleen weight upon 5 days of JQ-FT treatment (60 mg/kg I.P) or vehicle (65% D5W+30% PEG-400+5% Tween-80only). […] Statistical significance for treated vs. vehicle (*P≤0.05) was determined by non-parametric t-test (Mann-Whitney). […] Statistical significance for treated vs. vehicle (*P≤0.05) was determined by non-parametric t-test (Mann-Whitney). […] ICN1 loss was quantified and bar graph (j) corresponds to the results of the quantification. Statistical significance for treated vs. vehicle (*P≤0.05) was determined by Student's t-test. […]
# [2] = system: panel of cell lines; assay: Apoptosis luminescence assay (Caspase) in a panel of cell lines; assay type: cell-based; details: 384-well plates, 72 hours
# Description: Cells were grown in 384-well plates and treated for 72 hours with the indicated dose of Folate-Thap. Apoptosis was measured using a luminescence assay developed by Promega.
# [3] = system: T-ALL cell lines; assay: T-ALL cell viability / growth (ATP content, Cell-Titer Glo); assay type: cell-based, human; details: for cell growth / proliferation: T-ALL cell lines, 10 μM
# Description: Thus, cell lines carrying NOTCH1 alleles with HD domain, mutations were more sensitive to Thap-OH than cells with WT NOTCH1 alleles.
# As a further test of the idea that JQ-FT acts by preventing NOTCH1 activation in a manner similar to thapsigargin, the NOTCH1-dependent T-ALL cell lines RPMI-8402 were transduced with empty MigRI vector or with ICN1, which lies downstream of the γ-secretase cleavage step in Notch activation. Viral supernatant production and retroviral infections were performed as described for MigRI retroviral vectors (Aster, J. C., et al. “Essential roles for ankyrin repeat and transactivation domains in induction of T-cell leukemia by NOTCH1.” Mol. Cell. Biol. 2000; 20:7505-7515). Transduction efficiency for MigRI was monitored by assessing GFP expression with a FACScan flow cytometer (BD, Franklin Lakes, N.J., USA) (Aster et al., Mol. Cell. Biol. 2000; 20:7505-7515). After viral infection, GFP-positive cells were sorted by flow cytometry with a FACSAria II (BD, Franklin Lakes, N.J., USA). […] Therefore, JQ-FT can recapitulate the Thapsigargin effect with the delivery mechanism of folate.
# The NOTCH loss was measured via flow cytometry. […] The recapitulation of the thapsigargin effect by JQ-FT is hypothesized to be due to the delivery strategy introduced by folate. […] Here cell growth was assessed using the Promega Cell-Titer Glo ATP-based assay (Promega, Madison, Wis., USA). Luminescence was measured using a Fluostar Omega instrument (BMG-labtech, Ortenberg, Germany).
# The effects of JQ-FT in a panel of T-ALL cell lines that contain activating mutations in the HD domain of NOTCH1 and/or protein stabilizing deletions within the PEST degradation domain.
# [4] = system: NOTCH1 L1601P ΔPEST T-ALL; assay: Syngeneic T-ALL mouse model carrying NOTCH1 L1601P ΔPEST; assay type: in vivo
# Description: Viability data is represented as percentage relative to vehicle treatment and errors bars denote mean±SD of 3 replicates. Statistical significance of treated vs. vehicle (DMSO) samples (***P≤0.01; ***P≤0.001) was determined by one-way ANOVA with Bonferroni's correction for multiple comparison testing. […] The immunoblot contains cell lysates stained with anti-ICN1 antibody (Val1744) after treatment with the 10 μM of JQ-FT for 24 hours in vitro. GAPDH was used as a loading control ICN1 loss was quantified and bar graph (panel e) corresponds to the results of the quantification of three independent experiments. Statistical significance of treated vs. vehicle (DMSO) samples (*P≤0.05) was determined by Student's t-test. Expression of indicated NOTCH1 target genes HesI (panel d) and Dtx1 (panel e) in murine NOTCH1 L1601P ΔPEST expressing leukemia lymphoblasts treated with 10 μM JQ-FT for 24 hours was determined by qRT-PCR. Error bars indicate the mean±SD of 3 replicates. Data were analyzed using the ΔΔCT method and plotted as a percentage relative to the control gene Gapdh. Statistical significance for treated vs. vehicle (DMSO) (*P≤0.05) was determined by Student's t-test. […] The spleen and the liver of all mice were examined; representative results for one control animal and one JQ-FT-treated animal are shown. Formalin-fixed, paraffin-embedded tissue sections were stained using the hematoxylin and eosin stain (H & E) method. […] Anti-leukemic activity of JQ-FT was assessed by measuring spleen weight upon 5 days of JQ-FT treatment (60 mg/kg I.P) or vehicle (65% D5W+30% PEG-400+5% Tween-80only). […] Statistical significance for treated vs. vehicle (*P≤0.05) was determined by non-parametric t-test (Mann-Whitney). […] Error bars indicate mean±SD of 4 replicates (of the 4 animals of each group). Statistical significance for treated vs. vehicle (*P≤0.05) was determined by non-parametric t-test (Mann-Whitney). […] The immunoblot contains splenic cell lysates stained with anti-ICN1 antibody (Val1744) after treatment with the 60 mg/Kg of JQ-FT for 5 days. GAPDH was used as a loading control. ICN1 loss was quantified and bar graph (j) corresponds to the results of the quantification. Statistical significance for treated vs. vehicle (*P≤0.05) was determined by Student's t-test.
# In vitro studies provide valuable mechanistic insights but may not recapitulate tumor micro-environment and metabolic conditions in vivo. Indeed, a significant limitation of research on folate-conjugate drugs is the inconsistency between free folate concentrations (and other middle metabolites) in culture conditions in vitro versus in vivo. High levels of free folic acid in the sera may block the binding and uptake of JQ-FT in FR2-positive T-ALL compromising the anti-NOTCH1 leukemia effect observed in vitro. To explore the therapeutic efficacy of JQ-FT in vivo, we studied effects on a syngeneic T-ALL mouse model carrying a NOTCH1 L1601P ΔPEST, a common mutation observed in the human disease. First, leukemia cells obtained from this model were treated with JQ-FT for 24 hours in vitro.
# Though the JQ-FT conjugate has not, as yet, been optimized for pharmacologic properties, we are eager to explore the utility of the compound as an in vivo chemical probe, while assessing putative tolerability of folate-conjugated thapsigargins. We first established the maximal tolerated dose (MTD) of JQ-FT as 60 mg/kg/day in mice, as administered by daily intraperitoneal injection. […]
smiles,measurement,setting,value
C/C=C(/C)C(=O)O[C@H]1C(C)=C2C([C@@H]1OC(=O)CCCCCCC)[C@@](C)(OC(C)=O)C[C@H](OC(=O)CC[C@H](NC(=O)c1ccc(NCc3cnc4nc(N)[nH]c(=O)c4n3)cc1)C(=O)O)[C@@]1(O)[C@H]2OC(=O)[C@@]1(C)O (stereo partly drawn) [JQ-FT],ICN1 expression in murine leukemia cells,"[1]; 10 μM JQ-FT, 24 hours",diminished
same,transcription of NOTCH1 targets Hes1 and Dtx1,"[1]; 10 μM JQ-FT, 24 hours",diminished
same,proliferation of murine leukemia cells,[1]; ex vivo treatment with JQ-FT,diminished the proliferation
same,apoptosis as measured by Caspase,[2],apoptotic effect
same,rescue of loss of viability by exogenous ICN1,[3]; RPMI 8402 transduced with MigR1-ICN1 vs empty vector,overexpressing an exogenous ICN1 partially rescues the observed phenotype; also recorded: attenuated the growth inhibitory effects of JQ-FT
same,cell growth / proliferation,[3],impaired cell growth
same,cell growth / proliferation,[3]; listed as Folate-Thap,antiproliferation effect; also recorded: arrest of cell proliferation
same,bone marrow infiltration by T-ALL (GFP+ leukemia cells),"[4]; 60 mg/kg IP daily, five days",markedly inhibited
same,leukemic infiltration in spleen and liver (histology),"[4]; 60 mg/kg IP daily, five days",decrease of leukemic infiltration in spleen and liver; also recorded: Growth suppression of lymphoblasts
same,spleen weight,"[4]; 60 mg/kg IP daily, five days",reduction in spleen weight
same,tumor growth,"[4]; 60 mg/kg IP daily, five days",evident decrease in tumor growth
same,ICN1 expression in T-ALL cells from treated animals,"[4]; 60 mg/kg, 5 days, splenic cell lysates, vs vehicle",reduced ICN1 expression
